Read-outs that look alike come from different tables or passages of the source.
Assays:
Type in all cases: cell-based
[1] = tested on: KARPAS-422; assay: CellTiterGlo viability, DLBCL cell line; details: single agent, 2 days; for IC50: read-out: Abs IC50
Procedure: (§8) In addition, all media contained penicillin (100 IU/ml), streptomycin (100 μg/ml) and L-glutamine (2 mM). Unless otherwise mentioned, culture media and supplements were from Amimed/Bioconcept (Allschwil, Switzerland).
Cell lines were cultured at 37° C. in a humidified atmosphere containing 5% CO2 and expanded in T-75 flasks. In all cases cells were thawed from frozen stocks, expanded through ≥1 passage using appropriate dilutions, counted and assessed for viability using a CASY cell counter (Omni Life Science, Bremen, Germany) prior to plating 25 ul/well at the densities indicated in Table 1 into 384-well plates (Corning).
(§9) Stock solutions of compounds were prepared at a concentration of 10 mM in DMSO (Sigma) and stored at −20° C. Where necessary to afford a full dose-response curve, the stock solutions were pre-diluted in DMSO to 1′000-fold the desired start concentration (see Table 2). On the day after cell seeding, eight 2.5-fold serial dilutions of each compound were dispensed, either individually or in all possible permutations in a checkerboard fashion, directly into the cell assay plates using a non-contact 300D Digital Dispenser (ILCAN, Mannedorf, Switzerland) as outlined in FIG. 4. The final concentration of DMSO was 0.2% in all wells.
(§10) Effects of the single agents as well as their checkerboard combinations on cell viability were assessed after 2 days of incubation at 37° C./5% CO2 by quantification of cellular ATP levels using CellTiterGlo (Promega, Madison, Wis., USA) at 25 μL reagent/well and n=2 replicate plates per condition. Luminescence was quantified on a M1000 multipurpose platereader (ILCAN, Mannedorf, Switzerland). The number/viability of cells at time of compound addition was likewise assessed and used to assess the degree of the population doubling time of a particular cell line.
(§11) Single agent IC50s were calculated using standard four-parametric curve fitting. […] IC50 are defined as the compound concentration at which the CTG signal is reduced to 50% of that measured for the vehicle (DMSO) control.

[2] = tested on: SU-DHL-8; assay: CellTiterGlo viability, DLBCL cell line; details: single agent, 2 days; for IC50: read-out: Abs IC50
Procedure: as §8
Cell lines were cultured at 37° C. in a humidified atmosphere containing 5% CO2 and expanded in T-75 flasks. In all cases cells were thawed from frozen stocks, expanded through ≥1 passage using appropriate dilutions, counted and assessed for viability using a CASY cell counter (Omni Life Science, Bremen, Germany) prior to plating 25 ul/well at the densities indicated in Table 1 into 384-well plates (Corning). All cell lines were determined to be free of mycoplasma contamination by PCR assay performed at Idexx Radii (Columbia, Mo., USA) and misidentification ruled out by assessment of a panel of 48 Small Nucleotide Polymorphisms (SNPs) at Asuragen (Austin, Tex., USA) or in-house.
as §9, §10, §11

[3] = tested on: EOL-1; assay: CellTiterGlo viability, AML cell line; details: single agent, 3 days
Procedure: (§1) In addition, all media contained penicillin (100 IU/ml), streptomycin (100 μg/ml) and L-glutamine (2 mM).
(§2) Cell lines were cultured at 37° C. in a humidified atmosphere containing 5% CO2 and expanded in T-150 flasks. In all cases cells were thawed from frozen stocks, expanded through ≥1 passage using appropriate dilutions, counted and assessed for viability using a CASY cell counter prior to plating 150 ul/well at the densities indicated in Table 1 into 96-well plates. All cell lines were determined to be free of mycoplasma contamination in-house.
(§3) Stock solutions of compounds were prepared at a concentration of 5 mM in DMSO and stored at −20° C.
(§4) In order to analyse the activity of the compounds as single agents, cells were seeded and treated with nine 2-fold serial dilutions of each compound dispensed individually directly into the cell assay plates. Effects of the compounds on cell viability were assessed after 3 days of incubation at 37° C./5% CO2 by quantification of cellular ATP levels using CellTiterGlo at 75 μL reagent/well. All the experiments were performed in triplicates. Luminescence was quantified on a multipurpose plate reader. Single agent IC50s were calculated using standard four-parametric curve fitting. IC50 is defined as the compound concentration at which the CTG signal is reduced to 50% of that measured for the vehicle (DMSO) control.
(§5) In order to analyse the activity of the compounds in combination, cells were seeded and treated with seven or eight 3.16-fold serial dilutions of each compound dispensed, either individually or in all possible permutations in a checkerboard fashion, directly into the cell assay plates as indicated in FIG. 9. Effects of the single agents as well as their checkerboard combinations on cell viability were assessed after 3 days of incubation at 37° C./5% CO2 by quantification of cellular ATP levels using CellTiterGlo at 75 μL reagent/well. Two independent experiments, each one performed in duplicates, were performed. Luminescence was quantified on a multipurpose plate reader.
(§6) Potential synergistic interactions between compound combinations were assessed using the Excess Inhibition 2D matrix according to the Loewe additivity model and are reported as Synergy Score (Lehar et al, Nat Biotechnol. 2009 July; 27(7): 659-666). All calculations were performed using Clalice™ Bioinformatics Software.

[4] = tested on: GDM-1; assay: CellTiterGlo viability, AML cell line; details: single agent, 3 days
Procedure: as §1, §2, §3, §4, §5, §6

[5] = tested on: HL-60; assay: CellTiterGlo viability, AML cell line; details: single agent, 3 days
Procedure: as §1, §2, §3, §4, §5, §6

[6] = tested on: KG1a; assay: CellTiterGlo viability, AML cell line; details: single agent, 3 days
Procedure: as §1, §2, §3, §4, §5, §6

[7] = tested on: KG1; assay: CellTiterGlo viability, AML cell line; details: single agent, 3 days
Procedure: as §1, §2, §3, §4, §5, §6

[8] = tested on: Kasumi-1; assay: CellTiterGlo viability, AML cell line; details: single agent, 3 days
Procedure: as §1, §2, §3, §4, §5, §6

[9] = tested on: ML-2; assay: CellTiterGlo viability, AML cell line
Procedure: as §1, §2, §3, §4, §5, §6

[10] = tested on: MOLM-13; assay: CellTiterGlo viability, AML cell line; details: single agent, 3 days
Procedure: as §1, §2, §3, §4, §5, §6

[11] = tested on: MV4;11; assay: CellTiterGlo viability, AML cell line; details: single agent, 3 days
Procedure: as §1, §2, §3, §4, §5, §6

[12] = tested on: Nomo-1; assay: CellTiterGlo viability, AML cell line; details: single agent, 3 days
Procedure: as §1, §2, §3, §4, §5, §6

[13] = tested on: PL-21; assay: CellTiterGlo viability, AML cell line; details: single agent, 3 days
Procedure: as §1, §2, §3, §4, §5, §6

[14] = tested on: THP-1; assay: CellTiterGlo viability, AML cell line; details: single agent, 3 days
Procedure: as §1, §2, §3, §4, §5, §6

[15] = tested on: JVM-2; assay: CellTiterGlo viability, Mantle Cell Lymphoma cell line; details: single agent, 2 days
Procedure: (§7) In addition, all media contained penicillin (100 IU/ml), streptomycin (100 μg/ml) and L-glutamine (2 mM). […] All cell lines were determined to be free of mycoplasma contamination in-house. Stock solutions of compounds were prepared at a concentration of 5 mM in DMSO and stored at −20° C. In order to analyse the activity of the compounds as single agents or in combination, cells were seeded and treated with seven or eight 3.16-fold serial dilutions of each compound dispensed, either individually or in all possible permutations in a checkerboard fashion, directly into the cell assay plates. […] All the conditions were tested in triplicates. Luminescence was quantified on a multipurpose plate reader. […] All calculations were performed using Chalice™ Bioinformatics Software available in Horizon website. Single agent IC50s were calculated using standard four-parametric curve fitting.

[16] = tested on: Jeko; assay: as above; details: single agent, 2 days
Procedure: as §7

[17] = tested on: Mino; assay: as above; details: single agent, 2 days
Procedure: as §7

[18] = tested on: REC-1; assay: as above; details: single agent, 2 days
Procedure: as §7

[19] = tested on: Z-138; assay: as above; details: single agent, 2 days
Procedure: as §7

With `Cl.O=C(c1cc(-c2cc3c(cc2C(=O)N2Cc4ccccc4C[C@H]2CN2CCOCC2)OCO3)n2c1CCCC2)N(c1ccccc1)c1ccc(O)cc1` [Compound 1, HCl, N-(4-hydroxyphenyl)-3-{6-[((3S)-3-(4-morpholinylmethyl)-3,4-dihydro-2(1H)-isoquinolinyl)carbonyl]-1,3-benzodioxol-5-yl}-N-phenyl-5,6,7,8-tetrahydro-1-indolizine carboxamide hydrochloride] the IC50 ([1]; Homo sapiens, 48 h) was 2180 nM, the “Max Inh” value [1] was 90.9% and the IC50 ([2]; Homo sapiens, 48 h) was at least 10000 nM. For the same compound, the “Max Inh” value [2] was 28.7%, the IC50 ([3]; Homo sapiens, EOL1, 72 h) was 40 nM and the IC50 ([4]; Homo sapiens, 72 h) was 60 nM. The IC50 ([5]; Homo sapiens, 72 h) was 1420 nM, the IC50 ([6]; Homo sapiens, KG-1a, 72 h) was 1750 nM and the IC50 ([7]; Homo sapiens, KG-1, 72 h) was 4700 nM. For the same compound, the IC50 ([8]; Homo sapiens, 72 h) was 770 nM, the IC50 ([9]; Homo sapiens, 72 h, single agent, 3 days) was 40 nM and the IC50 ([10]; Homo sapiens, 72 h) was 40 nM. It also gave an IC50 ([11]; Homo sapiens, 72 h) of 30 nM, an IC50 ([12]; Homo sapiens, 72 h) of 7450 nM and an IC50 ([13]; 72 h) of 2780 nM. For the same compound, the IC50 ([14]; Homo sapiens, 72 h) was 750 nM, the IC50 ([15]; Homo sapiens, 48 h) was over 5000 nM and the “Max Inh” value [15] was 38.0%. For the same compound, the IC50 ([16]; 48 h) was over 5000 nM, the “Max Inh” value [16] was 35.0% and the IC50 ([17]; Homo sapiens, 48 h) was 91 nM. The “Max Inh” value [17] was 91.0%, the IC50 ([18]; Homo sapiens, Rec1, 48 h) was 703 nM and the “Max Inh” value [18] was 78.0%. For the same compound, the IC50 ([19]; Homo sapiens, 48 h) was over 5000 nM and the “Max Inh” value [19] was 25.0%.
With `COc1ccccc1-c1nccc(COc2ccccc2C[C@@H](Oc2ncnc3sc(-c4ccc(F)cc4)c(-c4ccc(OCCN5CCN(C)CC5)c(Cl)c4C)c23)C(=O)O)n1` [Compound 3, (2R)-2-{[(5Sa)-5-{3-chloro-2-methyl-4-[2-(4-methylpiperazin-1-yl)ethoxy]phenyl}-6-(4-fluorophenyl)thieno[2,3-d]pyrimidin-4-yl]oxy}-3-(2-{[2-(2-methoxyphenyl)pyrimidin-4-yl]methoxy}phenyl)propanoic acid] the “Max Inh” value [1] was 98.3%, the IC50 [1] was 2.14 nM and the “Max Inh” value [2] was 95.6%. The IC50 [2] was 305 nM, the IC50 [3] was 1 nM and the IC50 [4] was 8 nM. The “Mean of Max Inh” value ([4]; combination (c) experiment) was 100%, the IC50 [5] was 25 nM and the IC50 [6] was 2000 nM. The IC50 [7] was 390 nM, the IC50 [8] was 33 nM and the growth inhibition ([9]; fifth lowest concentration tested, Compound 4, HCl / Compound 3 experiment) was 26%. The IC50 ([9]; single agent, 3 days) was 5 nM, the “Mean of Max Inh” value ([9]; single agent, combination (c) experiment, 3 days) was 100% and the IC50 [10] was 2 nM. For the same compound, the “Mean of Max Inh” value ([10]; combination (c) experiment) was 100%, the IC50 [11] was 1 nM and the “Mean of Max Inh” value ([11]; combination (c) experiment) was 100.0%. For the same compound, the IC50 [12] was 13 nM, the IC50 [13] was 65 nM and the IC50 [14] was 17 nM. For the same compound, the IC50 [15] was over 2000 nM, the “Max Inh” value [15] was 19.0% and the IC50 [16] was 23 nM. The “Max Inh” value [16] was 100.0%, the IC50 [17] was 8 nM and the “Max Inh” value [17] was 100.0%. For the same compound, the IC50 [18] was 77 nM, the “Max Inh” value [18] was 99.0% and the IC50 [19] was 448 nM. The “Max Inh” value [19] was 96.0%.
